The source of these data is patent publication US11149011B2, “Compounds and methods for IDO and TDO modulation, and indications therefor” (Plexxikon Inc., priority 2018, dated 2021).

Some results are limits rather than exact numbers.

The target of assay [1] is T1, TDO-expressing HEK293 cell clones (Homo sapiens, UniProt P48775).
T1 construct: expressed in transfected cells; host or cells: HEK293
In words: Cell based kynurenine assay, TDO-expressing HEK293 cell clones. Conditions: HEK293 cells, 24 hours of incubation, geometric mean; read-out: HEK293 TDO Kynurenine GMean IC50 (μM) (Cellular Assay). As for the experimental part: (§1) IDO1-expressing or TDO-expressing HEK293 cell clones are generated upon stable transfection of plasmids expressing human IDO or human TDO under the control of CMV promoter. Cells are selected in DMEM media supplemented with 10% fetal bovine serum and 1 mg/ml G418 at 37° C. in a humidified incubator supplied with 5% CO2. The assays are performed as follows.
(§2) Cells were seeded in a 96 well plate in 50 μL of culture media at a density of 2.5×10^4 per well. Serial dilutions of compounds (in total volume of 50 μL culture media) are added into cells. 4 wells containing 0.2% DMSO treated cells serve as high controls and 4 wells containing media only with 0.2% DMSO serve as low controls. After 24 hours of incubation, the supernatant was transferred to a 384 well reaction plate and the kynurenine level determined. The percentage inhibition at individual concentrations relative to high and low controls is calculated. The data is analyzed by using nonlinear regression to generate IC50 values.

Assay [2] concerns the target T2, IDO1-expressing HEK293 cell clones (Homo sapiens, UniProt P14902).
T2 construct: expressed in transfected cells; host or cells: HEK293
In words: Cell based kynurenine assay, IDO1-expressing HEK293 cell clones. The conditions noted are these: HEK293 cells, 24 hours of incubation, geometric mean; read-out: HEK293 IDO1 Kynurenine GMean IC50 (μM) (Cellular Assay). The procedure:
as §1, §2

Assay [3] deals with T3, IDO1 (Homo sapiens, UniProt P14902).
T3 construct: His tag (N); made in house; host or cells: E. coli
T3 sequence (P14902 whole entry): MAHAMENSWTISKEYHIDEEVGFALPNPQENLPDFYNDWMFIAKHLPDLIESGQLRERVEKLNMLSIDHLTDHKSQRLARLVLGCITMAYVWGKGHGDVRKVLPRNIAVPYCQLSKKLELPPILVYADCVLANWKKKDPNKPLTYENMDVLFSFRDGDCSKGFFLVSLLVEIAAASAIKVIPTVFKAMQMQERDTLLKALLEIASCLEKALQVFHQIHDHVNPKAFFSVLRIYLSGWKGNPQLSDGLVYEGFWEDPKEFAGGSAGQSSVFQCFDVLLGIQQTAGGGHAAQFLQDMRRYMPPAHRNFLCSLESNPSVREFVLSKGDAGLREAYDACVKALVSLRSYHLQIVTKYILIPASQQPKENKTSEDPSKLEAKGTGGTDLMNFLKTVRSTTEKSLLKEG
The assay can be described thus: IDO enzymatic assay. The class given is biochemical. The conditions noted are these: geometric mean; read-out: IDO1 GMean: IC50 (μM) (Biochemical Assay). The procedure: (§3) Human IDO or TDO with N-terminal His tag is purified in E. coli. The IDO enzymatic assay is performed using 6 nM IDO and 10 μM L-Trp in the presence of 10 mM ascorbic acid, 5 μM methylene blue, 100 nM catalase and 0.01% Tween 20 in 50 mM sodium phosphate buffer (pH 6.5). 19 μL of above reaction mixture is added to wells of 384 well reaction plate containing 1 μL of various concentrations of test compound or DMSO vehicle and incubated for 20 minutes at room temperature. The TDO enzymatic reaction assay is performed using 1 nM TDO and 350 μM L-Trp in the presence of 10 mM ascorbic acid, 0.4 μM methylene blue, 100 nM catalase and 0.01% Tween 20 in 50 mM sodium phosphate buffer (pH 6.5). 19 μL of above reaction mixture is added to wells of 384 well reaction plate containing 1 μL of various concentrations of test compound or DMSO vehicle and incubated for 70 minutes at room temperature. 16 wells containing all the components of reaction mixture and 5% DMSO serve as high control. 16 well containing all the components except enzyme of reaction mixture and 5% DMSO serves as low control. Both IDO and TDO enzymatic reactions are stopped by addition of 4 μL of 30% TCA and incubated 30 minutes at 50° C. to hydrolyze N-formylkynurenine produced by IDO or TDO to kynurenine. Upon measuring the kynurenine level, the percentage inhibition is calculated at individual concentrations relative to high and low controls. The data is analyzed by using nonlinear regression to generate IC50 values.

Assay [4] concerns the target T4, TDO (Homo sapiens, UniProt P48775).
T4 construct: His tag (N); made in house; host or cells: E. coli
The assay can be described thus: TDO enzymatic assay. The conditions noted are these: geometric mean; read-out: TDO GMean: IC50 (μM) (Biochemical Assay). As for the experimental part: as §3

T1 sequence (P48775 whole entry): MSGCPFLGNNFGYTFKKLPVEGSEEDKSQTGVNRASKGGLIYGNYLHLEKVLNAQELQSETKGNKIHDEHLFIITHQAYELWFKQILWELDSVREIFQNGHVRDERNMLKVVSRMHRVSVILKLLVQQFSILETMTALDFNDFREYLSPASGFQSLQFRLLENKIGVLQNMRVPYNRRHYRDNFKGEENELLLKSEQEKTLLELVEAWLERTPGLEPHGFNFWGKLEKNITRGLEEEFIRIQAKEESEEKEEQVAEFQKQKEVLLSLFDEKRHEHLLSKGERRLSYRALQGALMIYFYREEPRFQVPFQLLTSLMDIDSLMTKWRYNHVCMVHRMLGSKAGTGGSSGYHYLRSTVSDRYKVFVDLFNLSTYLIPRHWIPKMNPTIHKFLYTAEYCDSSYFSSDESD
T4 sequence (P48775 whole entry): as above
T2 sequence (P14902 whole entry): as the sequence (P14902 whole entry) above

Take `CCONC(=O)N1CCC(C(C)(C)[C@H](O)c2cc(Cl)cc3cn[nH]c23)CC1` [Compound P-0121, (S)-4-(1-(5-chloro-1H-indazol-7-yl)-1-hydroxy-2-methylpropan-2-yl)-N-ethoxypiperidine-1-carboxamide]: the concentration for half-maximal inhibition (IC50) in assay [1], in assay [2], in assay [3] and in assay [4] was 0.0001 to 10 µM in each case.

Regarding `CC(C)(C1CCN(C(=O)NCCS(C)(=O)=O)CC1)C(O)c1cc(Cl)cc2[nH]ncc12` (stereo not drawn) [Compound P-0085, 4-(1-(6-chloro-1H-indazol-4-yl)-1-hydroxy-2-methylpropan-2-yl)-N-(2-(methylsulfonyl)ethyl)piperidine-1-carboxamide], the concentration for half-maximal inhibition (IC50) in assay [1] is 0.0001 to 10 µM; in assay [2] it was more than 10 µM; in assay [3], 0.0001 to 10 µM; in assay [4], 0.0001 to 10 µM.

As to `CC(C)(C1CCN(C(=O)NC2(C#N)CC2)CC1)C(O)c1cc(Cl)cc2[nH]ncc12` (stereo not drawn) [Compound P-0119, 4-(1-(6-chloro-1H-indazol-4-yl)-1-hydroxy-2-methylpropan-2-yl)-N-(1-cyanocyclopropyl)piperidine-1-carboxamide], the concentration for half-maximal inhibition (IC50) was 0.0001 to 10 µM in assay [1], more than 10 µM in assay [2], 0.0001 to 10 µM in assay [3] and 0.0001 to 10 µM in assay [4].

In the case of `CC(C)ONC(=O)N1CCC(C(C)(C)[C@H](O)c2cc(Cl)cc3cn[nH]c23)CC1` [Compound P-0064, (S)-4-(1-(5-chloro-1H-indazol-7-yl)-1-hydroxy-2-methylpropan-2-yl)-N-isopropoxypiperidine-1-carboxamide], the IC50 in assay [1], in assay [2], in assay [3] and in assay [4] was 0.0001 to 10 µM throughout.

With `CC(C)(C1CCN(C(=O)C2CCOCC2)CC1)C(O)c1cc(Cl)cc2[nH]ncc12` (stereo not drawn) [Compound P-0048, (4-(1-(6-chloro-1H-indazol-4-yl)-1-hydroxy-2-methylpropan-2-yl)piperidin-1-yl)(tetrahydro-2H-pyran-4-yl)methanone], the IC50 in assay [1], in assay [2], in assay [3] and in assay [4] was 0.0001 to 10 µM in each case.

For `CC(C)(C1CCN(C(=O)N2CCS(=O)(=O)CC2)CC1)[C@H](O)c1cc(Cl)cc2cn[nH]c12` [Compound P-0022, (S)-(4-(1-(5-chloro-1H-indazol-7-yl)-1-hydroxy-2-methylpropan-2-yl)piperidin-1-yl)(1,1-dioxidothiomorpholino)methanone], the half-maximal inhibitory concentration (IC50) in assay [1], in assay [2], in assay [3] and in assay [4] was 0.0001 to 10 µM in each case.

With `CCS(=O)(=O)N1CCC(C(C)(C)[C@H](O)c2cc(Cl)cc3[nH]ncc23)CC1` [Compound P-0147, (S)-1-(6-chloro-1H-indazol-4-yl)-2-(1-(ethylsulfonyl)piperidin-4-yl)-2-methylpropan-1-ol], the half-inhibitory concentration (IC50) in assay [1] is 0.0001 to 10 µM; in assay [2] it was more than 10 µM; in assay [3], 0.0001 to 10 µM; in assay [4], 0.0001 to 10 µM.

As to `CC(C)(C1CCN(C(=O)c2ccc(C(F)(F)F)nc2)CC1)C(O)c1cc(Cl)cc2[nH]ncc12` (stereo not drawn) [Compound P-0053, (4-(1-(6-chloro-1H-indazol-4-yl)-1-hydroxy-2-methylpropan-2-yl)piperidin-1-yl)(6-(trifluoromethyl)pyridin-3-yl)methanone], the concentration for half-maximal inhibition (IC50) in assay [1], in assay [2], in assay [3] and in assay [4] was 0.0001 to 10 µM throughout.

`CC(C)(C1CCN(C(=O)NC2CCC2)CC1)C(O)c1cc(Cl)cc2[nH]ncc12` (stereo not drawn) [Compound P-0078, 4-(1-(6-chloro-1H-indazol-4-yl)-1-hydroxy-2-methylpropan-2-yl)-N-cyclobutylpiperidine-1-carboxamide]: the IC50 in assay [1], in assay [2], in assay [3] and in assay [4] was 0.0001 to 10 µM in each case.

Turning to `CC(C)(C1CCN(C(=O)NCCN2CCOCC2)CC1)[C@H](O)c1cc(Cl)cc2cn[nH]c12` [Compound P-0020, (S)-4-(1-(5-chloro-1H-indazol-7-yl)-1-hydroxy-2-methylpropan-2-yl)-N-(2-morpholinoethyl)piperidine-1-carboxamide], the IC50 in assay [1], in assay [2], in assay [3] and in assay [4] was 0.0001 to 10 µM throughout.

Turning to `CC(C)(C1CCN(C(=O)NCC(F)(F)F)CC1)C(O)c1cc(Cl)cc2[nH]ncc12` (stereo not drawn) [Compound P-0084, 4-(1-(6-chloro-1H-indazol-4-yl)-1-hydroxy-2-methylpropan-2-yl)-N-(2,2,2-trifluoroethyl)piperidine-1-carboxamide], the IC50 in assay [1], in assay [2], in assay [3] and in assay [4] was 0.0001 to 10 µM in each case.

Turning to `CC(C)(C1CCN(C(=O)N[C@H]2CCOC2)CC1)C(O)c1cc(Cl)cc2[nH]ncc12` (stereo partly drawn) [Compound P-0114, 4-(1-(6-chloro-1H-indazol-4-yl)-1-hydroxy-2-methylpropan-2-yl)-N-((S)-tetrahydrofuran-3-yl)piperidine-1-carboxamide], the IC50 in assay [1], in assay [2], in assay [3] and in assay [4] was 0.0001 to 10 µM throughout.

Take `COCCNC(=O)N1CCC(C(C)(C)C(O)c2cc(Cl)cc3[nH]ncc23)CC1` (stereo not drawn) [Compound P-0083, 4-(1-(6-chloro-1H-indazol-4-yl)-1-hydroxy-2-methylpropan-2-yl)-N-(2-methoxyethyl)piperidine-1-carboxamide]: the concentration for half-maximal inhibition (IC50) in assay [1], in assay [2], in assay [3] and in assay [4] was 0.0001 to 10 µM in each case.

With `CC(C)(C1CCN(C(=O)CO)CC1)[C@H](O)c1cc(Cl)cc2[nH]ncc12` [Compound P-0145, (S)-1-(4-(1-(6-chloro-1H-indazol-4-yl)-1-hydroxy-2-methylpropan-2-yl)piperidin-1-yl)-2-hydroxyethan-1-one], the IC50 in assay [1] is 0.0001 to 10 µM; in assay [2] it was more than 10 µM; in assay [3], 0.0001 to 10 µM; in assay [4], 0.0001 to 10 µM.

With `CC(C)(C1CCN(C(=O)NCC2CCC2)CC1)C(O)c1cc(Cl)cc2[nH]ncc12` (stereo not drawn) [Compound P-0092, 4-(1-(6-chloro-1H-indazol-4-yl)-1-hydroxy-2-methylpropan-2-yl)-N-(cyclobutylmethyl)piperidine-1-carboxamide], the half-maximal inhibitory concentration (IC50) in assay [1], in assay [2], in assay [3] and in assay [4] was 0.0001 to 10 µM throughout.

For `CC(C)(C1CCN(C(=O)CC#N)CC1)C(O)c1cc(Cl)cc2[nH]ncc12` (stereo not drawn) [Compound P-0047, 3-(4-(1-(6-chloro-1H-indazol-4-yl)-1-hydroxy-2-methylpropan-2-yl)piperidin-1-yl)-3-oxopropanenitrile], the IC50 in assay [1], in assay [2], in assay [3] and in assay [4] was 0.0001 to 10 µM each time.

`C#CCNC(=O)N1CCC(C(C)(C)C(O)c2cc(Cl)cc3[nH]ncc23)CC1` (stereo not drawn) [Compound P-0088, 4-(1-(6-chloro-1H-indazol-4-yl)-1-hydroxy-2-methylpropan-2-yl)-N-(prop-2-yn-1-yl)piperidine-1-carboxamide]: the IC50 in assay [1] is 0.0001 to 10 µM; in assay [2], more than 10 µM; in assay [3], 0.0001 to 10 µM; in assay [4], 0.0001 to 10 µM.

For the compound `CC(C)(C1CCN(C(=O)NCc2ncccn2)CC1)[C@H](O)c1cc(Cl)cc2cn[nH]c12` [Compound P-0027, (S)-4-(1-(5-chloro-1H-indazol-7-yl)-1-hydroxy-2-methylpropan-2-yl)-N-(pyrimidin-2-ylmethyl)piperidine-1-carboxamide], the IC50 in assay [1], in assay [2], in assay [3] and in assay [4] was 0.0001 to 10 µM in each case.

For orientation: IC50 means the concentration that gives 50% inhibition.
